Laboratory results reported in PMC12645083, “Microwave‐Enhanced Synthesis of 2‐Styrylquinoline‐4‐Carboxamides With Promising Anti‐Lymphoma Activity” (Archiv Der Pharmazie, 2025).

Columns and labels:
Test in all cases: In vitro antiproliferative activity, resazurin cell viability
Format in all cases: cell-based
HD-MB03 = settings: Homo sapiens, medulloblastoma cells, 72 h of treatment, mean ± SEM, at least three experiments
Procedure: (§1) To test the newly synthesized compounds, various human cell lines were employed. HD‐MB03 cells were purchased from DSMZ (Braunschweig, Germany), while A549, MDA‐MB‐231, RPMI‐8420, SU‐DHL‐8, TOLEDO, VL51, SU‐DHL‐1, SU‐DHL‐18, and KM‐H2 were obtained from ATCC (Manassas, VA, USA). Cells were cultured in DMEM (for MDA‐MB‐231 and A549) or RPMI‐1640 (for RPMI‐8420, SU‐DHL‐8, TOLEDO, VL51, SU‐DHL‐1, SU‐DHL‐18, KM‐H2, and HD‐MB03) media (Gibco, Milan, Italy). Both media were supplemented with 115 units/mL penicillin G (Gibco, Milan, Italy), 115 µg/mL streptomycin (Invitrogen, Milan, Italy), and 10% fetal bovine serum (Invitrogen, Milan, Italy). Peripheral blood mononuclear cells (PBMCs) were isolated from healthy donors as previously described. For cytotoxicity assays, PBMCs were resuspended at 5 × 10⁵ cells/mL in complete RPMI medium with or without 2.5 µg/mL phytohemagglutinin (PHA) (Irvine Scientific) to stimulate T‐cell activation and proliferation. All cell lines were maintained at 37°C in a humidified atmosphere containing 5% CO₂. All compounds were dissolved in DMSO at a 10 mM stock concentration. For dose–response assays, cells were seeded in 96‐well plates at densities optimized for each cell line: HD‐MB03 at 10,000 cells/well, A549 at 4000 cells/well, and MDA‐MB‐231 at 7000 cells/well. All other cell lines were seeded at 20,000 cells/well in a final volume of 100 µL per well. After 24 h, cells were treated with a 6‐point serial dilution of compounds starting from 10 µM, in triplicate for statistical analysis. Seventy‐2 h posttreatment, 10 µL of resazurin solution (100 µg/mL) was added to each well, and cells were incubated for an additional 3–6 h. Fluorescence was measured using a Spark 10 M microplate reader (Tecan Group Ltd., Männedorf, Switzerland) with excitation at 535 nm and emission at 600 nm. The IC₅₀ was defined as the concentration of compound required to inhibit cell proliferation by 50% compared to cells treated with the highest DMSO concentration.
(§2) To test the newly synthesized compounds, various human cell lines were employed. HD-MB03 cells were purchased from DSMZ (Braunschweig, Germany), while A549, MDA-MB-231, RPMI-8420, SU-DHL-8, TOLEDO, VL51, SU-DHL-1, SU-DHL-18, and KM-H2 were obtained from ATCC (Manassas, VA, USA). Cells were cultured in DMEM (for MDA-MB-231 and A549) or RPMI-1640 (for RPMI-8420, SU-DHL-8, TOLEDO, VL51, SU-DHL-1, SU-DHL-18, KM-H2, and HD-MB03) media (Gibco, Milan, Italy). Both media were supplemented with 115 units/mL penicillin G (Gibco, Milan, Italy), 115 µg/mL streptomycin (Invitrogen, Milan, Italy), and 10% fetal bovine serum (Invitrogen, Milan, Italy). Peripheral blood mononuclear cells (PBMCs) were isolated from healthy donors as previously described. ^[1] For cytotoxicity assays, PBMCs were resuspended at 5 × 10⁵ cells/mL in complete RPMI medium with or without 2.5 µg/mL phytohemagglutinin (PHA) (Irvine Scientific) to stimulate T cell activation and proliferation. All cell lines were maintained at 37 °C in a humidified atmosphere containing 5% CO₂. All compounds were dissolved in DMSO at a 10 mM stock concentration. For dose–response assays, cells were seeded in 96-well plates at densities optimized for each cell line: HD-MB03 at 10,000 cells/well, A549 at 4,000 cells/well, and MDA-MB-231 at 7,000 cells/well. All other cell lines were seeded at 20,000 cells/well in a final volume of 100 µL per well. After 24 hours, cells were treated with a 6-point serial dilution of compounds starting from 10 µM, in triplicate for statistical analysis. Seventy-two hours post-treatment, 10 µL of resazurin solution (100 µg/mL) was added to each well, and cells were incubated for an additional 3–6 hours. Fluorescence was measured using a Spark 10M microplate reader (Tecan Group Ltd., Männedorf, Switzerland) with excitation at 535 nm and emission at 600 nm. […]

MDA-MB-231 = settings: Homo sapiens, triple-negative breast cancer, 72 h of treatment, mean ± SEM
Procedure: as §1, §2

A549 = settings: Homo sapiens, non-small cell lung cancer, 72 h of treatment, mean ± SEM
Procedure: as §1, §2

SU-DHL-8 = settings: Homo sapiens, B lymphocyte, large cell lymphoma, 72 h of treatment, mean ± SEM
Procedure: as §1, §2

RPMI-8402 = settings: Homo sapiens, T-lymphoblastic leukemia cells, 72 h of treatment, mean ± SEM
Procedure: as §1, §2

| Structure (SMILES) | IC50 (MDA-MB-231) [µM] | IC50 (A549) [µM] | IC50 (SU-DHL-8) [µM] | IC50 (HD-MB03) [µM] | IC50 (RPMI-8402) [µM] |
| --- | --- | --- | --- | --- | --- |
| O=C(Nc1ccccc1)c1cc(/C=C/c2ccccc2)nc2ccccc12 [4a, (E)-N-phenyl-2-styrylquinoline-4-carboxamide] | > 10 | > 10 | > 10 | > 10 | > 10 |
| O=C(Nc1ccc(C(F)(F)F)cc1)c1cc(/C=C/c2ccc(Br)cc2)nc2ccccc12 [4aa, (E)-2-(4-bromostyryl)-N-(4-(trifluoromethyl)phenyl)quinoline-4-carboxamide] | > 10 | > 10 | > 10 | > 10 | > 10 |
| O=C(Nc1ccc(C(F)(F)F)cc1)c1cc(/C=C/c2ccccc2[N+](=O)[O-])nc2ccccc12 [4ac, (E)-2-(2-nitrostyryl)-N-(4-(trifluoromethyl)phenyl)quinoline-4-carboxamide] | > 10 | > 10 | > 10 | > 10 | > 10 |
| O=C(Nc1ccc(C(F)(F)F)cc1)c1cc(/C=C/c2cccc([N+](=O)[O-])c2)nc2ccccc12 [4ad, (E)-2-(3-nitrostyryl)-N-(4-(trifluoromethyl)phenyl)quinoline-4-carboxamide] | > 10 | > 10 | > 10 | > 10 | > 10 |
| COc1ccc(/C=C/c2cc(C(=O)Nc3ccc(Cl)cc3)c3ccccc3n2)cc1 [4ae, (E)-N-(4-chlorophenyl)-2-(4-methoxystyryl)quinoline-4-carboxamide] | > 10 | > 10 | 4.67 ± 0.14 | > 10 | 6.41 ± 1.16 |
| O=C(Nc1ccc(Cl)cc1)c1cc(/C=C/c2ccc(Cl)cc2)nc2ccccc12 [4af, (E)-N-(4-chlorophenyl)-2-(4-chlorostyryl)quinoline-4-carboxamide] | > 10 | > 10 | 4.45 ± 0.53 | > 10 | 4.61 ± 0.24 |
| O=C(Nc1ccc(Cl)cc1)c1cc(/C=C/c2ccc(Cl)c(Cl)c2)nc2ccccc12 [4ag, (E)-N-(4-chlorophenyl)-2-(3,4-dichlorostyryl)quinoline-4-carboxamide] | 5.52 ± 0.22 | 7.71 ± 0.56 | 3.49 ± 0.11 | 6.93 ± 0.06 | 6.42 ± 0.43 |
| Cc1cccc(NC(=O)c2cc(/C=C/c3ccccc3)nc3ccccc23)c1 [4b, (E)-2-styryl-N-(m-tolyl)quinoline-4-carboxamide] | > 10 | > 10 | 5.05 ± 0.58 | > 10 | > 10 |
| Cc1ccc(NC(=O)c2cc(/C=C/c3ccccc3)nc3ccccc23)cc1 [4c, (E)-2-styryl-N-(p-tolyl)quinoline-4-carboxamide] | > 10 | > 10 | > 10 | > 10 | > 10 |
| Cc1cccc(C)c1NC(=O)c1cc(/C=C/c2ccccc2)nc2ccccc12 [4d, (E)-N-(2,6-dimethylphenyl)-2-styrylquinoline-4-carboxamide] | 5.6 ± 0.79 | > 10 | 6.53 ± 1.49 | > 10 | > 10 |
| O=C(Nc1ccc(Cl)cc1)c1cc(/C=C/c2ccccc2)nc2ccccc12 [4g, (E)-N-(4-chlorophenyl)-2-styrylquinoline-4-carboxamide] | > 10 | > 10 | 7.8 ± 1.3 | > 10 | 6.31 ± 0.36 |

Further lines, with some results ahead:

| IC50 (MDA-MB-231) [µM] | IC50 (A549) [µM] | IC50 (SU-DHL-8) [µM] | Structure (SMILES) | IC50 (HD-MB03) [µM] | IC50 (RPMI-8402) [µM] |
| --- | --- | --- | --- | --- | --- |
| > 10 | > 10 | 6.61 ± 0.76 | COc1cc(NC(=O)c2cc(/C=C/c3ccccc3)nc3ccccc23)cc(OC)c1OC [4e, (E)-2-styryl-N-(3,4,5-trimethoxyphenyl)quinoline-4-carboxamide] | 7.1 ± 1.15 | > 10 |
| > 10 | > 10 | 8.27 ± 0.72 | O=C(Nc1cccc(Cl)c1)c1cc(/C=C/c2ccccc2)nc2ccccc12 [4f, (E)-N-(3-chlorophenyl)-2-styrylquinoline-4-carboxamide] | > 10 | > 10 |
| > 10 | > 10 | 5.33 ± 0.52 | COc1cc(/C=C/c2cc(C(=O)Nc3ccccc3)c3ccccc3n2)cc(OC)c1OC [4k, (E)-N-phenyl-2-(3,4,5-trimethoxystyryl)quinoline-4-carboxamide] | > 10 | > 10 |
| 5.95 ± 0.66 | 9.34 ± 0.18 | 2.94 ± 0.08 | COc1cc(/C=C/c2cc(C(=O)Nc3cccc(C)c3)c3ccccc3n2)cc(OC)c1OC [4l, (E)-N-(m-tolyl)-2-(3,4,5-trimethoxystyryl)quinoline-4-carboxamide] | > 10 | 3.75 ± 0.18 |
| > 10 | > 10 | > 10 | COc1cc(/C=C/c2cc(C(=O)Nc3ccc(C)cc3)c3ccccc3n2)cc(OC)c1OC [4m, (E)-N-(p-tolyl)-2-(3,4,5-trimethoxystyryl)quinoline-4-carboxamide] | > 10 | > 10 |
| 5.95 ± 0.89 | > 10 | 2.09 ± 0.14 | COc1cc(/C=C/c2cc(C(=O)Nc3cc(OC)c(OC)c(OC)c3)c3ccccc3n2)cc(OC)c1OC [4o, (E)-N-(3,4,5-trimethoxyphenyl)-2-(3,4,5-trimethoxystyryl)quinoline-4-carboxamide] | > 10 | 4.55 ± 0.42 |
| 5.7 ± 0.1 | > 10 | 4.46 ± 0.37 | COc1cc(/C=C/c2cc(C(=O)Nc3cccc(Cl)c3)c3ccccc3n2)cc(OC)c1OC [4p, (E)-N-(3-chlorophenyl)-2-(3,4,5-trimethoxystyryl)quinoline-4-carboxamide] | 8.31 ± 0.64 | 9.06 ± 0.59 |
| > 10 | > 10 | 4.61 ± 0.84 | COc1cc(/C=C/c2cc(C(=O)Nc3ccc(Cl)cc3)c3ccccc3n2)cc(OC)c1OC [4q, (E)-N-(4-chlorophenyl)-2-(3,4,5-trimethoxystyryl)quinoline-4-carboxamide] | > 10 | > 10 |
| > 10 | > 10 | 2.13 ± 0.08 | COc1cc(/C=C/c2cc(C(=O)Nc3ccc(C(F)(F)F)cc3)c3ccccc3n2)cc(OC)c1OC [4r, (E)-N-(4-(trifluoromethyl)phenyl)-2-(3,4,5-trimethoxystyryl)quinoline-4-carboxamide] | > 10 | > 10 |
| > 10 | > 10 | > 10 | COc1cc(/C=C/c2cc(C(=O)Nc3ccc([N+](=O)[O-])c(C(F)(F)F)c3)c3ccccc3n2)cc(OC)c1OC [4t, (E)-N-(4-nitro-3-(trifluoromethyl)phenyl)-2-(3,4,5-trimethoxystyryl)quinoline-4-carboxamide] | > 10 | > 10 |
